Test results published in publication PMC12071944, “Interaction Between Glucagon-like Peptide 1 and Its Analogs with Amyloid-β Peptide Affects Its Fibrillation and Cytotoxicity” (International Journal of Molecular Sciences, 2025).
“Also recorded” adds a separate entry of the source. Where two headings read alike, the source gives them in different places. Ends that are not written are not given here.

Assays:
[1] = tested on: AD patients; details: cited from earlier work; for cognition and memory: patients with mild cognitive impairment and AD, ref [16]
Excerpt: Worldwide, approximately 416 million individuals are affected by AD dementia, prodromal AD, or preclinical AD, accounting for 22% of the population aged 50 years and older.

[2] = tested on: animal AD models; details: ref [29]; cited from earlier work
[3] = cited from earlier work
[4] = tested on: Aβ40 fibrillation; test: ThT fluorescence assay of Aβ40 fibrillation; assay type: biochemical, Human; details: 20 µM Aβ40, 10 µM GLP-1RA, 30 °C, pH 7.4
Experimental: The influence of GLP-1RAs on Aβ40 fibril formation at 30 °C was studied using the ThT fluorescence assay at ThT and GLP-1RA concentrations of 10 μM for both components (Figure 4).
Standard deviations of the fluorescence signals are indicated. Excitation wavelength of 440 nm.
The Aβ40 sample was prepared as described in ref. [82] with some modifications (~5 mM NaOH at pH 11.8, 0.5 mg/mL). […] The control curves (without Aβ40; Figure S1) were subtracted from the corresponding kinetic curves of Aβ40 samples with/without GLP-1RAs. Each measurement was performed in 2–10 repetitions. The mean fluorescence signal values for each experimental sample were normalized to the average fluorescence signal corresponding to the saturation phase of Aβ40 fibril formation without additives. Data are presented as mean ± standard deviation.

[5] = Dynamic light scattering, quaternary structure of GLP-1RAs; assay type: physicochemical; details: DLS, 25 °C, pH 7.4
Experimental: DLS measurements were carried out using a Zetasizer Nano ZS system (Malvern Instruments Ltd., Malvern, UK). The backscattered light from a 4 mW He-Ne laser at 632.8 nm was collected at an angle of 173°. […] The acquisition time for a single autocorrelation function was 100 s. The resulting autocorrelation functions were averaged values from three measurements. The volume-weighted size distributions were calculated using the following parameters for the buffer: the refractive index of 1.334 was measured using the RL3 refractometer (PZO, Warszawa, Poland); the viscosity value η = 0.95 mPa∙s was measured using a micro-rheology method with a water suspension of standard latex nanoparticles (NIST 3060A, Thermo Fisher Scientific, Waltham, MA, USA). The molecular mass and its standard deviation corresponding to the volume-weighted hydrodynamic radius MWRh distribution was calculated in approximation of a globular protein according to the equations from ref. [86]. The degree of multimerization was calculated as the MWRh/MWm ratio, where MWm is the molecular mass of the monomeric GLP-1RAs calculated from their molecular structure.

[6] = tested on: cultured neuronal cells; details: ref [30], cited from earlier work
[7] = tested on: Aβ levels in the mouse brain; details: in vivo; ref [30]; cited from earlier work
Excerpt: The N-terminally truncated forms of GLP-1, GLP-1(7-36)/(7-37), secreted from intestinal L cells, control meal-related glycemic excursions by augmentation of insulin expression and secretion and inhibition of glucagon release (reviewed in [21]). Some population of neurons in the nucleus tractus solitarii of the brainstem can also express GLP-1 [22, 23].

[8] = tested on: SH-SY5Y cells; test: MTT assay, Aβ42 cytotoxicity toward SH-SY5Y cells; details: 48 h
Experimental: (§1) GLP-1RAs were premixed with Aβ40/Aβ42 at an equimolar ratio in serum-free medium and added to the SH-SY5Y cells cultured in the same medium to a final concentration of both components of 10 µM. Staining with MTT was performed after incubation of the cells for 48 h.
(§2) Mean values and standard deviations are indicated.
(§3) Human neuroblastoma SH-SY5Y cells were cultured in DMEM-F12 medium supplemented with 1% penicillin-streptomycin-glutamine and 10% fetal bovine serum at 37 °C for 24 h in a humidified atmosphere with 5% CO2. Upon reaching 80% confluence, the cells were harvested and seeded into 96-well plates at a density of 15 × 10^5 cells per well in serum-free DMEM/F12 + PSG medium.
(§4) The Aβ40/Aβ42 samples were dissolved in fresh 1% NH4OH at a concentration of 0.5 mg/mL, followed by freeze-drying.
Freshly prepared Aβ40/Aβ42, GLP-1RAs, or their mixtures were added (100 µL per well) to the cultures 24 h after seeding to a final concentration of both components of 10 µM. The final volume of medium in the well was 200 µL. The MTT assay, designed to assess cellular metabolic activity, was performed after incubation of the cells for 48 h. MTT (0.005 mg/mL) was added and the cells were incubated for 3 h, followed by solubilization of the cells using DMSO. […] The resulting values were normalized relative to the control group of the untreated cells (100%). Data are presented as mean ± standard deviation (n = 5–10).

[9] = tested on: APP/PS1 AD mice; details: ref [47],[48],[49]; cited from earlier work
[10] = tested on: SH-SY5Y cells; test: MTT assay, Aβ40 cytotoxicity toward SH-SY5Y cells; details: 48 h
Experimental: as §1, §2, §3, §4
(§5) Freshly prepared Aβ40/Aβ42, GLP-1RAs, or their mixtures were added (100 µL per well) to the cultures 24 h after seeding to a final concentration of both components of 10 µM. The final volume of medium in the well was 200 µL. The MTT assay, designed to assess cellular metabolic activity, was performed after incubation of the cells for 48 h. MTT (0.005 mg/mL) was added and the cells were incubated for 3 h, followed by solubilization of the cells using DMSO. […] The resulting values were normalized relative to the control group of the untreated cells (100%). […]

[11] = tested on: serum albumin (HSA); details: attached fatty acid chain; ref [44],[45]; cited from earlier work
[12] = tested on: SH-SY5Y cells; test: MTT assay, Aβ (Aβ40/Aβ42) cytotoxicity toward SH-SY5Y cells; details: 10 µM Aβ40/Aβ42 and 10 µM GLP-1RA, 48 h, summary table
Experimental: as §1, §2, §3, §4, §5

[13] = b29: plasma concentrations; ref [61],[62]; cited from earlier work
[14] = tested on: Aβ40 fibrils; test: Negative-staining TEM of Aβ40 fibrils; assay type: biochemical, Human
Experimental: The scale bars represent 1 μm.
A copper grid (300-mesh) coated with a 0.2% formvar film was placed on a 10 µL drop of the sample. […] Excess stain was removed using filter paper, and the grid was rinsed in deionized water for 1 min. The samples were analyzed using a JEM-1400Plus (HC) transmission electron microscope (JEOL, Ltd., Tokyo, Japan) at an accelerating voltage of 80 keV.

For CN(C)C(=N)N=C(N)N [metformin], the cognition and memory [1] is listed as “can improve cognition and memory”.
For CC[C@H](C)[C@H](NC(=O)[C@H](Cc1ccccc1)NC(=O)[C@H](CCC(=O)O)NC(=O)[C@H](CCCCN)NC(=O)[C@H](C)NC(=O)[C@H](C)NC(=O)[C@H](CCC(N)=O)NC(=O)CNC(=O)[C@H](CCC(=O)O)NC(=O)[C@H](CC(C)C)NC(=O)[C@H](Cc1ccc(O)cc1)NC(=O)[C@H](CO)NC(=O)[C@H](CO)NC(=O)[C@@H](NC(=O)[C@H](CC(=O)O)NC(=O)[C@H](CO)NC(=O)[C@@H](NC(=O)[C@H](Cc1ccccc1)NC(=O)[C@@H](NC(=O)CNC(=O)[C@H](CCC(=O)O)NC(=O)[C@H](C)NC(=O)[C@@H](N)Cc1c[nH]cn1)[C@@H](C)O)[C@@H](C)O)C(C)C)C(=O)N[C@@H](C)C(=O)N[C@@H](Cc1c[nH]c2ccccc12)C(=O)N[C@@H](CC(C)C)C(=O)N[C@H](C(=O)N[C@@H](CCCCN)C(=O)NCC(=O)N[C@@H](CCCNC(=N)N)C(=O)NCC(=O)O)C(C)C [GLP-1(7-37)], the “AD Animal Data: learning and memory” value [2] is given as “Positive effects on learning and memory [29]”, the “ability to cross the BBB” value ([3]; in vivo) is given as “possessed” and the “Effect on Aβ40 Fibrillation (Figure 4 and Figure 5)” value ([4]; ThT assay and TEM, summary table) is given as “Inhibition”. The “effect on Aβ40 fibrillation” value ([4]; ThT assay, 10 μM ThT, 25 mM Tris-HCl, 140 mM NaCl, ex 440/em 485 nm, 2–10 repetitions) was “inhibit Aβ40 fibrillation; also recorded: suppressed Aβ40 fibrillation; also recorded: suppression of Aβ40 fibrillation”, the “oligomerization, in words” value [5] was “strong oligomerization” and the “molecular mass from Rh (MWRh)” value ([5]; 5–83 µM, globular protein approximation) was >7 × 10^5 kDa.
For “GLP-1(7-36): N-terminally truncated form of glucagon-like peptide 1, residues 7-36 (HAEGTFTSDVSSYLEGQAAKEFIAWLVKGR; ends and bridges not checked; UniProt P01275 98-127, looked up)”, the “protection against Aβ/iron-induced death” value ([6]; cultured hippocampal neurons) is given as “protects cultured hippocampal neurons against Aβ/iron-induced death”, the “levels of APP” value ([6]; cultured neuronal cells) is given as “decrease levels of APP in cultured neuronal cells” and the “Aβ levels in the mouse brain” value [7] is given as “reduce Aβ levels in the mouse brain in vivo”.
For CCCCCCCCCCCCCCCC(=O)N[C@@H](CCC(=O)NCCCC[C@H](NC(=O)[C@H](C)NC(=O)[C@H](C)NC(=O)[C@H](CCC(N)=O)NC(=O)CNC(=O)[C@H](CCC(=O)O)NC(=O)[C@H](CC(C)C)NC(=O)[C@H](Cc1ccc(O)cc1)NC(=O)[C@H](CO)NC(=O)[C@H](CO)NC(=O)[C@@H](NC(=O)[C@H](CC(=O)O)NC(=O)[C@H](CO)NC(=O)[C@@H](NC(=O)[C@H](Cc1ccccc1)NC(=O)[C@@H](NC(=O)CNC(=O)[C@H](CCC(=O)O)NC(=O)[C@H](C)NC(=O)[C@@H](N)Cc1cnc[nH]1)[C@@H](C)O)[C@@H](C)O)C(C)C)C(=O)N[C@@H](CCC(=O)O)C(=O)N[C@@H](Cc1ccccc1)C(=O)N[C@H](C(=O)N[C@@H](C)C(=O)N[C@@H](Cc1c[nH]c2ccccc12)C(=O)N[C@@H](CC(C)C)C(=O)N[C@H](C(=O)N[C@@H](CCCNC(=N)N)C(=O)NCC(=O)N[C@@H](CCCNC(=N)N)C(=O)NCC(=O)O)C(C)C)[C@@H](C)CC)C(=O)O [Lira, liraglutide], the “effect on Aβ42 cytotoxicity” value ([8]; 10 µM Aβ42 + 10 µM GLP-1RA, serum-free medium) is given as “abolished this effect; also recorded: most pronounced increase in the viability of SH-SY5Y cells”, the “crosses the BBB” value [9] is given as “crosses the BBB” and the “effect on Aβ40 cytotoxicity” value ([10]; 10 µM Aβ40 + 10 µM GLP-1RA, serum-free medium) is given as “abolished this effect”. The “binding to serum albumin / clearance” value [11] was “favors binding to serum albumin, thereby slowing the clearance of Lira”, the “Effect on Aβ Cytotoxicity to SH-SY5Y Cells (Figure 7)” value [12] was “Protection” and the “ability to cross the BBB” value ([3]; conclusions, ref Table 4) was “possessed”. For the same molecule, the peak plasma concentrations [13] was 20 to 120 nM.
With glucagon-like peptide 1 [GLP-1] the “appearance of Aβ40 fibrils by TEM” value ([14]; after ThT assay, 20 µM Aβ40 with 10 μM GLP-1RA, 1% uranyl acetate) was “sporadic small fibril clusters were still observed”.
In the case of donanemab, the side effects ([1]; human, in vivo) is listed as “brain edema and microhemorrhages”.
With amyloid-β peptide, residues 1-40 [Aβ40] the fibril length ([14]; printed as "up to", Aβ40 with 10 μM GLP-1RA) was “up to 2 µm” and the “decrease in cell survival” value ([10]; 10 µM Aβ40 alone, n = 5–10) was 22%.
In the case of insulin [intranasal insulin], the cognition and memory [1] is listed as “can improve cognition and memory”.
With amyloid-β peptide, residues 1-42 [Aβ42] the “decrease in cell survival” value ([8]; 10 µM Aβ42 alone, n = 5–10) was 37%.
